Laboratory results from patent publication US8648092B2, “Imidazo[1,2-a]pyridine derivatives: preparation and pharmaceutical applications” (MEI Pharma, priority 2005, dated 2014).

Legend:
[1] = biological target: HDAC1 enzyme (recombinant GST-HDAC1) (Homo sapiens (Human), UniProt Q13547); assay: In vitro HDAC assay for determination of IC50 values (BIOMOL fluorescent-based HDAC activity assay); format: biochemical; settings: Flur de lys substrate, 2 h room temperature, read-out: IC50 (HDAC 1)
Experimental: Biological Testing and Enzyme Assays Recombinant GST-HDAC1 Protein Expression and Purification
Human cDNA library was prepared using cultured SW620 cells. Amplification of human HDAC1 coding region from this cDNA library was cloned separately into the baculovirus expression pDEST20 vector (GATEWAY Cloning Technology, Invitrogen Pte Ltd). The pDEST20-HDAC1 construct was confirmed by DNA sequencing. Recombinant baculovirus was prepared using the Bac-To-Bac method following the manufacturer's instruction (Invitrogen Pte Ltd).
Expression of GST-HDAC1 was done by infecting SF9 cells (Invitrogen Pte Ltd) with pDEST20-HDAC1 baculovirus at MOI=1 for 48 h. Soluble cell lysate was incubated with pre-equilibrated Glutathione Sepharose 4B beads (Amersham) at 4° C. for 2 h. The beads were washed with PBS buffer for 3 times. The GST-HDAC1 protein was eluted by elution buffer containing 50 mM Tris, pH8.0, 150 mM NaCl, 1% Triton X-100 and 10 mM or 20 mM reduced Glutathione. The purified GST-HDAC1 protein was dialyzed with HDAC storage buffer containing 10 mM Tris, pH7.5, 100 mM NaCl and 3 mM MgCl2. 20% Glycerol was added to purified GST-HDAC1 protein before storage at −80° C.
In Vitro HDAC Assay for Determination of IC50 Values
The assay has been carried out in 96 well format and the BIOMOL fluorescent-based HDAC activity assay has been applied. […] Flur de lys Developer was added and the reaction was incubated for 10 min. Briefly, deacetylation of the substrate sensitizes it to the developer, which then generates a fluorophore. The fluorophore is excited with 360 nm light and the emitted light (460 nm) is detected on a fluorometric plate reader (Tecan Ultra Microplate detection system, Tecan Group Ltd.).
The analytical software, Prism 4.0 (GraphPad Software Inc) has been used to generate IC50 from a series of data.

Colo205 cells = assay: Cell-based proliferation assay for determination of GI50 values (CyQUANT); set-up: species or system human; settings: Homo sapiens
Experimental: Cell-Based Proliferation Assay for Determination of GI50 Values
Human cancer cell lines (e.g. Colo205) were obtained from ATCC. Colo205 cells were cultivated in RPMI 1640 containing 2 mM L-Glutamine, 5% FBS, 1.0 mM Na Pyruvate. Colo205 cells were seeded in 96-wells plate at 5000 cells per well. The plates were incubated at 37° C., 5% CO2, for 24 h. Cells were treated with compounds at various concentrations for 96 h. Cell growth was then monitored using CyQUANT® cell proliferation assay (Invitrogen Pte Ltd). Dose response curves were plotted to determine GI50 values for the compounds using XL-fit (ID Business Solution, Emeryville, Calif.). GI50 is defined as the concentration of compound required for 50% inhibition of cell growth.
The cellular or growth inhibition activity results of representative compounds are shown in Table 4 below (unit in the table is micromolar).

HDAC1 enzyme (recombinant GST-HDAC1), sequence (Q13547 whole entry): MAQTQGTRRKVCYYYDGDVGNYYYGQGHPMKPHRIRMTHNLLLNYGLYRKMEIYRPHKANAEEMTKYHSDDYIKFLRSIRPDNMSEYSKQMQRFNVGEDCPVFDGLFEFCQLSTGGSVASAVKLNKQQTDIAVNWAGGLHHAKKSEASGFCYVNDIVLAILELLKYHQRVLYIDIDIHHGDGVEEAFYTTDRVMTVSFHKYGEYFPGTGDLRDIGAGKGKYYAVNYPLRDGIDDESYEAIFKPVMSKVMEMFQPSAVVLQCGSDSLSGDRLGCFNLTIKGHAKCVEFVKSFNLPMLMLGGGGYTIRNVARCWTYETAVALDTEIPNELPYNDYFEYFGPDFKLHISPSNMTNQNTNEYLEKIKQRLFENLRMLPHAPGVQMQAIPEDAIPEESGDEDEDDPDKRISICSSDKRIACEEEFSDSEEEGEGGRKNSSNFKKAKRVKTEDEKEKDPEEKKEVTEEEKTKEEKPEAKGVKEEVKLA

| Compound | IC50 [1] [nM] | GI50 (Colo205 cells; COLO 205, 96 h treatment) [nM] | GI50 (Colo205 cells; COLO 205, 96 h, 96 h treatment) [nM] |
| --- | --- | --- | --- |
| CCN(CC)Cc1c(-c2ccccc2)nc2cc(C(=O)NO)ccn12 [Compound 79, 3-Diethylaminomethyl-2-phenyl-imidazo[1,2-a]pyridine-7-carboxylic acid hydroxyamide] | > 10000 | > 100000 |  |
| CC(C)CCc1nc2cc(/C=C/C(=O)NO)ccn2c1CNC(C)(C)C [Compound 140, 3-[3-(tert-Butylamino-methyl)-2-(3-methyl-butyl)-imidazo[1,2-a]pyridin-7-yl]-N-hydroxy-acrylamide] | 20 | 100 |  |
| CCCCCCc1nc2ccc(/C=C/C(=O)NO)cn2c1NCCC(=O)NCC [Compound 18, (E)-3-(3-(3-(ethylamino)-3-oxopropylamino)-2-hexylimidazo[1,2-a]pyridin-6-yl)-N-hydroxyacrylamide] | 630 | 12000 |  |
| CCCCCCc1nc2cc(/C=C/C(=O)NO)ccn2c1NCCC(=O)NC(CO)C(C)C (centres unmarked) [Compound 27, 3-{2-Hexyl-3-[2-(1-hydroxymethyl-2-methyl-propylcarbamoyl)-ethylamino]-imidazo[1,2-a]pyridin-7-yl}-N-hydroxy-acrylamide] | 180 | 8500 |  |
| CCCCc1nc2cc(/C=C/C(=O)NO)ccn2c1CNC(C)(C)C [Compound 73, 3-[2-Butyl-3-(tert-butylamino-methyl)-imidazo[1,2-a]pyridin-7-yl]-N-hydroxy-acrylamide] | 20 |  | 140 |
| CC(C)Cc1nc2cc(/C=C/C(=O)NO)ccn2c1CNC(C)(C)C [Compound 133, 3-[3-(tert-Butylamino-methyl)-2-isobutyl-imidazo[1,2-a]pyridin-7-yl]-N-hydroxy-acrylamide] | 50 | 210 |  |
| CCCCCc1nc2cc(/C=C/C(=O)NO)ccn2c1CNC(C)(C)C [Compound 128, 3-[3-(tert-Butylamino-methyl)-2-pentyl-imidazo[1,2-a]pyridin-7-yl]-N-hydroxy-acrylamide] | 20 | 70 |  |
| CCCN(Cc1c(-c2ccccc2)nc2cc(/C=C/C(=O)NO)ccn12)CC1CC1 [Compound 53, 3-{3-[(Cyclopropylmethyl-propyl-amino)-methyl]-2-phenyl-imidazo[1,2a]pyridin-7-yl}-N-hydroxy-acrylamide] | 600 | 2900 |  |
| CCc1nc2cc(/C=C/C(=O)NO)ccn2c1CN(CC)CCC(C)C [Compound 139, 3-(2-Ethyl-3-{[ethyl-(3-methyl-butyl)-amino]-methyl}-imidazo[1,2-a]pyridin-7-yl)-N-hydroxy-acrylamide] | 20 | 100 |  |
| CCN(Cc1c(C(C)(C)C)nc2cc(/C=C/C(=O)NO)ccn12)CC1CCOC1 (centres unmarked) [Compound 96, 3-(2-tert-Butyl-3-{[ethyl-(tetrahydro-furan-3-ylmethyl)-amino]-methyl}-imidazo[1,2-a]pyridin-7-yl)-N-hydroxy-acrylamide] | 370 | 3400 |  |
| CC(C)Nc1c(C(C)C)nc2ccc(/C=C/C(=O)NO)cn12 [Compound 14, N-Hydroxy-3-(2-isopropyl-3-isopropylamino-imidazo[1,2-a]pyridin-6-yl)-acrylamide] | 2700 | 9200 |  |
| CCN(CC)Cc1c(C(C)(C)C)nc2cc(/C=C/C(=O)NO)ccn12 [Compound 80, 3-(2-tert-Butyl-3-diethylaminomethyl-imidazo[1,2-a]pyridin-7-yl)-N-hydroxy-acrylamide] | 1200 |  | 4400 |
| O=C(/C=C/c1ccc2nc(CCc3ccccc3)c(Nc3ccc4c(c3)OCO4)n2c1)NO [Compound 4, 3-[3-(Benzo[1,3]-dioxol-5-ylamino)-2-phenethyl-imidazo[1,2-a]pyridin-6-yl]-N-hydroxy-acrylamide] | 640 | 2800 |  |
| CCCCN(CC)Cc1c(C)nc2cc(/C=C/C(=O)NO)ccn12 [Compound 99, 3-{3-[(Butyl-ethyl-amino)-methyl]-2-methyl-imidazo[1,2-a]pyridin-7-yl}-N-hydroxy-acrylamide] | 30 | 180 |  |
| CCCCCCc1nc2cc(/C=C/C(=O)NO)ccn2c1NCCC(=O)NCCN(C)C [Compound 20, 3-{3-[2-(2-Dimethylamino-ethylcarbamoyl)-ethylamino]-2-hexyl-imidazo[1,2-a]pyridin-7-yl}-N-hydroxy-acrylamide] | 99 | 28000 |  |
| CCCCN(CC)Cc1c(CCC(C)C)nc2cc(/C=C/C(=O)NO)ccn12 [Compound 141, 3-[3-[(Butyl-ethyl-amino)-methyl]-2-(3-methyl-butyl)-imidazo[1,2a]pyridin-7-yl]-N-hydroxy-acrylamide] | 40 | 160 |  |
| COCCNc1c(C(C)C)nc2ccc(/C=C/C(=O)NO)cn12 [Compound 7, N-Hydroxy-3-[2-isopropyl-3-(2-methoxy-ethylamino)-imidazo[1,2-a]pyridin-6-yl]-acrylamide] | 2700 | 9300 |  |
| CCCCCN(CC)Cc1c(C(C)(C)C)nc2cc(/C=C/C(=O)NO)ccn12 [Compound 87, 3-{2-tert-Butyl-3-[(ethyl-pentyl-amino)-methyl]-imidazo[1,2-a]pyridin-7-yl}-N-hydroxy-acrylamide] | 130 | 750 |  |
| CC(C)(C)CNCc1c(-c2ccccc2)nc2cc(/C=C/C(=O)NO)ccn12 [Compound 59, 3-{3-[(2,2-Dimethyl-propylamino)-methyl]-2-phenyl-imidazo[1,2-a]pyridin-7-yl}-N-hydroxy-acrylamide] | 230 | 2100 |  |
| CCN(CCC(C)(C)C)Cc1c(CCC(C)C)nc2cc(/C=C/C(=O)NO)ccn12 [Compound 143, 3-[3-{[(3,3-Dimethyl-butyl)-ethyl-amino]-methyl}-2-(3-methyl-butyl)-imidazo[1,2-a]pyridin-7-yl]-N-hydroxy-acrylamide] | 40 | 130 |  |
| CCN(CC)CCNCc1c(C(C)(C)C)nc2cc(/C=C/C(=O)NO)ccn12 [Compound 43, 3-{2-tert-Butyl-3-[(2-diethylamino-ethylamino)-methyl]-imidazo[1,2-a]pyridin-7-yl}-N-hydroxy-acrylamide] | 2000 | 34000 |  |
| CCN(CC)CCNCc1c(-c2ccccc2)nc2cc(/C=C/C(=O)NO)ccn12 [Compound 47, 3-{3-[(2-Diethylamino-ethylamino)-methyl]-2-phenyl-imidazo[1,2a]pyridin-7-yl}-N-hydroxy-acrylamide] | 650 | 30000 |  |
| CCCN(Cc1c(C(C)(C)C)nc2cc(/C=C/C(=O)NO)ccn12)C(C)C [Compound 102, 3-{2-tert-Butyl-3-[(isopropyl-propyl-amino)-methyl]-imidazo[1,2-a]pyridin-7-yl}-N-hydroxy-acrylamide] | 300 | 2500 |  |
| CCCCc1nc2cc(/C=C/C(=O)NO)ccn2c1CN(CC)CCC(C)(C)C [Compound 117, 3-(2-Butyl-3-{[(3,3-dimethyl-butyl)-ethyl-amino]-methyl}-imidazo[1,2-a]pyridin-7-yl)-N-hydroxy-acrylamide] | 30 | 140 |  |
| CCCCCCc1nc2cc(/C=C/C(=O)NO)ccn2c1NCCC(=O)NCCCC [Compound 21, 3-[3-(2-Butylcarbamoyl-ethylamino)-2-hexyl-imidazo[1,2-a]pyridin-7-yl]-N-hydroxy-acrylamide] | 130 | 13000 |  |
| O=C(/C=C/c1ccn2cc(-c3ccccc3)nc2c1)NO [Compound 34, N-Hydroxy-3-(2-phenyl-imidazo[1,2-a]pyridin-7-yl)-acrylamide] | 870 | 42000 |  |
| CCN(Cc1c(-c2ccccc2)nc2cc(/C=C/C(=O)NO)ccn12)CC(F)(F)F [Compound 105, 3-(3-{[Ethyl-(2,2,2-trifluoro-ethyl)-amino]-methyl}-2-phenyl-imidazo [1,2-a]pyridin-7-yl)-N-hydroxy-acrylamide] | 7400 | 44000 |  |
| CCCCCc1nc2cc(/C=C/C(=O)NO)ccn2c1CN(CC)CCCC [Compound 129, 3-{3-[(Butyl-ethyl-amino)-methyl]-2-pentyl-imidazo[1,2-a]pyridin-7-yl}-N-hydroxy-acrylamide] | 40 |  | 150 |
